The source made the active and inactive calls. The rule behind the calls is not given here.
Assays:
CYP2C9 = CYP2C9 (Homo sapiens, UniProt P11712); test: Inhibition of CYP2C9 (unknown origin) at 10 uM relative to control; assay type: ADME
[1] = AUC/dose in Sprague-Dawley rat at 5 mg/kg, iv; assay type: ADME, organism-based; conditions: in vivo
[2] = AUCinfinity in Sprague-Dawley rat at 10 mg/kg, po; assay type: ADME, organism-based; conditions: in vivo
[3] = test system: Trastuzumab-resistant JIMT-1; test: Downregulation of survivin protein level in human Trastuzumab-resistant JIMT-1 cell at 10 uM measured upto 72 hrs by Western blot analysis; assay type: functional, cell-based
CYP3A4 = CYP3A4 (Homo sapiens, UniProt P08684); test: Inhibition of CYP3A4 (unknown origin) at 10 uM relative to control; assay type: ADME
hERG (KCNH2) [4] = target: T1, hERG (KCNH2) (Homo sapiens, UniProt Q12809); test: Inhibition of human ERG at 10 uM by fluorescence polarization assay relative to control
[5] = Antiproliferative activity against human Trastuzumab-sensitive BT474 cell assessed as inhibition of cell viability measured after 72 hrs by CellTiter 96 Aqueous One Solution Cell Proliferation Assay; assay type: functional, cell-based; conditions: BT-474, 72 h
[6] = test system: Trastuzumab-resistant JIMT-1; test: Antitumor activity against human Trastuzumab-resistant JIMT-1 cell xenografted in female BALB/c nude mouse assessed as inhibition of tumor burden at 20 mg/kg, ip administered every other day for 40 days; assay type: functional, organism-based; conditions: time 40.0 day
CYP1A2 = target: T2, CYP1A2 (Homo sapiens, UniProt P05177); test: Inhibition of CYP1A2 (unknown origin) at 10 uM relative to control; assay type: ADME
T2 sequence (P05177 whole entry): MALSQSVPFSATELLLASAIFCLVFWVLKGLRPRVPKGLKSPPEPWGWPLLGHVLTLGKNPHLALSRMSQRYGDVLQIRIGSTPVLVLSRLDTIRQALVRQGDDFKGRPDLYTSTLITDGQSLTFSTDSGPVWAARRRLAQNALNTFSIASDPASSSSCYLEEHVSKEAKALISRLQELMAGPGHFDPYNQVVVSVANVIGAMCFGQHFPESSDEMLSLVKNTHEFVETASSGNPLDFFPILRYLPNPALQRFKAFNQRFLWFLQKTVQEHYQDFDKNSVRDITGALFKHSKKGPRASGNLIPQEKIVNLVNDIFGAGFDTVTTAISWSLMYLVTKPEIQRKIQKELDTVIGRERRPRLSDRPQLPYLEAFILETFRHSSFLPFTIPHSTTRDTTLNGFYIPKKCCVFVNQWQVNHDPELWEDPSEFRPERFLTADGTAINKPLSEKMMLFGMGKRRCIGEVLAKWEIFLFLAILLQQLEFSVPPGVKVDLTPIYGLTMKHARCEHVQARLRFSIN

[7] = Oral bioavailability in Sprague-Dawley rat at 10 mg/kg; assay type: ADME, organism-based; conditions: in vivo
[8] = Genotoxicity in Salmonella typhimurium TA100 in presence of rat liver S9 fraction by Ames test; assay type: toxicity, subcellular; conditions: salmonella enterica subsp. enterica serovar typhimurium
[9] = Genotoxicity in Salmonella typhimurium TA98 in absence of rat liver S9 fraction by Ames test; assay type: toxicity; conditions: salmonella enterica subsp. enterica serovar typhimurium
[10] = Stability in rat plasma assessed as compound remaining incubated for 120 mins; assay type: ADME, cell-free; conditions: read-out: Stability
[11] = target: Heat shock protein HSP 90-alpha (Homo sapiens) (UniProt P07900); test: Inhibition of HSP90alpha in human Trastuzumab-resistant JIMT-1 cell assessed as reduction in HER2 phosphorylation level at Tyr1221/1222 residues at 10 uM measured upto 72 hrs by Western blot analysis; assay type: cell-based
hERG (KCNH2) [12] = target: T1, hERG (KCNH2); test: Inhibition of human ERG expressed in CHO cells at 30 uM by whole-cell patch clamp assay relative to control; assay type: toxicity, cell-based; conditions: CHO cells expressing hERG
[13] = target: Heat shock protein HSP 90-alpha (Homo sapiens) (UniProt P07900); test: Inhibition of PPID binding to C-terminal Hsp90-alpha CTD (unknown origin) at 500 uM by Alpha screen microplate reader analysis
[14] = test system: Trastuzumab-resistant JIMT-1; test: Antiproliferative activity against human Trastuzumab-resistant JIMT-1 cell assessed as inhibition of cell viability measured after 72 hrs by CellTiter 96 Aqueous One Solution Cell Proliferation Assay; assay type: functional, cell-based; conditions: Trastuzumab-resistant JIMT-1, 72 h
[15] = Genotoxicity in Salmonella typhimurium TA100 in absence of rat liver S9 fraction by Ames test; assay type: toxicity; conditions: salmonella enterica subsp. enterica serovar typhimurium
BT-474 [16] = test: Downregulation of cyclinD1 level in human Trastuzumab-sensitive BT474 cell at 10 uM measured upto 72 hrs by Western blot analysis; assay type: functional, cell-based
[17] = Volume of distribution in Sprague-Dawley rat at 5 mg/kg, iv; assay type: ADME, organism-based; conditions: in vivo
[18] = test system: Trastuzumab-resistant JIMT-1; test: Downregulation of cyclinD1 level in human Trastuzumab-resistant JIMT-1 cell at 10 uM measured upto 72 hrs by Western blot analysis; assay type: functional, cell-based
[19] = AUClast in Sprague-Dawley rat at 5 mg/kg, iv; assay type: ADME, organism-based; conditions: in vivo
[20] = target: Heat shock protein HSP 90-alpha (Homo sapiens) (UniProt P07900); test: Inhibition of HSP90alpha in human Trastuzumab-sensitive BT474 cell assessed as reduction in Akt phosphorylation level at Ser473 residues at 10 uM measured upto 72 hrs by Western blot analysis; assay type: cell-based
CYP2D6 = CYP2D6 (Homo sapiens, UniProt P10635); test: Inhibition of CYP2D6 (unknown origin) at 10 uM relative to control; assay type: ADME
[21] = Tmax in Sprague-Dawley rat at 10 mg/kg, po; assay type: ADME, organism-based; conditions: in vivo
BT-474 [22] = test: Downregulation of AKT expression in human Trastuzumab-sensitive BT474 cell at 10 uM measured upto 72 hrs by Western blot analysis; assay type: functional, cell-based
[23] = AUClast in Sprague-Dawley rat at 10 mg/kg, po; assay type: ADME, organism-based; conditions: in vivo
[24] = C0 in Sprague-Dawley rat at 5 mg/kg, iv; assay type: ADME, organism-based; conditions: in vivo
[25] = test system: Trastuzumab-resistant JIMT-1; test: Downregulation of HER2 expression in human Trastuzumab-resistant JIMT-1 cell at 10 uM measured upto 72 hrs by Western blot analysis; assay type: functional, cell-based
BT-474 [26] = test: Downregulation of HER2 expression in human Trastuzumab-sensitive BT474 cell at 10 uM measured upto 72 hrs by Western blot analysis; assay type: functional, cell-based
[27] = Metabolic stability in rat liver microsomes assessed as parent compound remaining measured after 30 mins; assay type: ADME, Microsome; conditions: read-out: Stability
[28] = Half life in Sprague-Dawley rat at 10 mg/kg, po; assay type: ADME, organism-based; conditions: in vivo
[29] = Metabolic stability in human liver microsomes assessed as parent compound remaining measured after 30 mins; assay type: ADME, Microsome; conditions: read-out: Stability
hERG (KCNH2) [30] = target: T1, hERG (KCNH2); test: Inhibition of human ERG expressed in CHO cells at 3 uM by whole-cell patch clamp assay relative to control; assay type: toxicity, cell-based; conditions: CHO cells expressing hERG
[31] = Cmax in Sprague-Dawley rat at 10 mg/kg, po; assay type: ADME, organism-based; conditions: in vivo
[32] = target: Heat shock protein HSP 90-alpha (Homo sapiens) (UniProt P07900); test: Inhibition of HSP90alpha in human Trastuzumab-sensitive BT474 cells assessed as reduction in HER2 phosphorylation level at Tyr1221/1222 residues at 10 uM measured upto 72 hrs by Western blot analysis; assay type: cell-based
CYP2C19 = CYP2C19 (Homo sapiens, UniProt P33261); test: Inhibition of CYP2C19 (unknown origin) at 10 uM relative to control; assay type: ADME
[33] = MRTinfinity in Sprague-Dawley rat at 5 mg/kg, iv; assay type: ADME, organism-based; conditions: in vivo
[34] = test system: Trastuzumab-resistant JIMT-1; test: Antitumor activity against human Trastuzumab-resistant JIMT-1 cell xenografted in female BALB/c nude mouse assessed as inhibition of tumor volume at 20 mg/kg, ip administered every other day for 40 days; assay type: functional, organism-based; conditions: time 40.0 day
[35] = Genotoxicity in Salmonella typhimurium TA98 in presence of rat liver S9 fraction by Ames test; assay type: toxicity, subcellular; conditions: salmonella enterica subsp. enterica serovar typhimurium
[36] = target: Heat shock protein HSP 90-alpha (Homo sapiens) (UniProt P07900); test: Inhibition of HSP90alpha in human Trastuzumab-resistant JIMT-1 cell assessed as reduction in Akt phosphorylation level at Ser473 residues at 10 uM measured upto 72 hrs by Western blot analysis; assay type: cell-based
[37] = Clearance in Sprague-Dawley rat at 10 mg/kg, po; assay type: ADME, organism-based; conditions: in vivo
[38] = Volume of distribution in Sprague-Dawley rat at 10 mg/kg, po; assay type: ADME, organism-based; conditions: in vivo
[39] = test system: Trastuzumab-resistant JIMT-1; test: Antitumor activity against human Trastuzumab-resistant JIMT-1 cell xenografted in female BALB/c nude mouse assessed as inhibition of tumor weight at 20 mg/kg, ip administered every other day for 40 days; assay type: functional, organism-based; conditions: time 40.0 day
BT-474 [40] = test: Antiproliferative activity against human BT-474 cells assessed as inhibition of cell viability at 10 uM measured after 72 hrs by CellTiter 96 Aqueous One Solution Cell Proliferation Assay relative to control; assay type: functional
[41] = Toxicity in female BALB/c nude mouse assessed as effect on body weight at 20 mg/kg, ip administered every other day for 40 days; assay type: organism-based; conditions: in vivo, 960 h, time 40 day
BT-474 [42] = test: Downregulation of survivin protein level in human Trastuzumab-sensitive BT474 cell at 10 uM measured upto 72 hrs by Western blot analysis; assay type: functional, cell-based
[43] = Stability in human plasma assessed as compound remaining incubated for 120 mins; assay type: ADME, cell-free; conditions: read-out: Stability
[44] = AUC/dose in Sprague-Dawley rat at 10 mg/kg, po; assay type: ADME, organism-based; conditions: in vivo
[45] = AUCinfinity in Sprague-Dawley rat at 5 mg/kg, iv; assay type: ADME, organism-based; conditions: in vivo
JIMT-1 = test: Antiproliferative activity against human JIMT-1 cells assessed as inhibition of cell viability at 10 uM measured after 72 hrs by CellTiter 96 Aqueous One Solution Cell Proliferation Assay relative to control; assay type: functional
[46] = MRTinfinity in Sprague-Dawley rat at 10 mg/kg, po; assay type: ADME, organism-based; conditions: in vivo
Homo sapiens = species: Homo sapiens; test: Inhibition of N-terminal HSP90 (unknown origin) at 10 uM by AlphaLISA assay
[47] = Clearance in Sprague-Dawley rat at 5 mg/kg, iv; assay type: ADME, organism-based; conditions: in vivo
[48] = test system: Trastuzumab-resistant JIMT-1; test: Downregulation of AKT expression in human Trastuzumab-resistant JIMT-1 cell at 10 uM measured upto 72 hrs by Western blot analysis; assay type: functional, cell-based
HEK293 = test: Cytotoxicity against HEK293 cells assessed as reduction in cell viability at 10 uM measured after 72 hrs by CellTiter 96 Aqueous One Solution Cell Proliferation Assay; assay type: toxicity, cell-based; conditions: human, hek293, 72 h
[49] = Half life in Sprague-Dawley rat at 5 mg/kg, iv; assay type: ADME, organism-based; conditions: in vivo

T1 sequence (Q12809 whole entry): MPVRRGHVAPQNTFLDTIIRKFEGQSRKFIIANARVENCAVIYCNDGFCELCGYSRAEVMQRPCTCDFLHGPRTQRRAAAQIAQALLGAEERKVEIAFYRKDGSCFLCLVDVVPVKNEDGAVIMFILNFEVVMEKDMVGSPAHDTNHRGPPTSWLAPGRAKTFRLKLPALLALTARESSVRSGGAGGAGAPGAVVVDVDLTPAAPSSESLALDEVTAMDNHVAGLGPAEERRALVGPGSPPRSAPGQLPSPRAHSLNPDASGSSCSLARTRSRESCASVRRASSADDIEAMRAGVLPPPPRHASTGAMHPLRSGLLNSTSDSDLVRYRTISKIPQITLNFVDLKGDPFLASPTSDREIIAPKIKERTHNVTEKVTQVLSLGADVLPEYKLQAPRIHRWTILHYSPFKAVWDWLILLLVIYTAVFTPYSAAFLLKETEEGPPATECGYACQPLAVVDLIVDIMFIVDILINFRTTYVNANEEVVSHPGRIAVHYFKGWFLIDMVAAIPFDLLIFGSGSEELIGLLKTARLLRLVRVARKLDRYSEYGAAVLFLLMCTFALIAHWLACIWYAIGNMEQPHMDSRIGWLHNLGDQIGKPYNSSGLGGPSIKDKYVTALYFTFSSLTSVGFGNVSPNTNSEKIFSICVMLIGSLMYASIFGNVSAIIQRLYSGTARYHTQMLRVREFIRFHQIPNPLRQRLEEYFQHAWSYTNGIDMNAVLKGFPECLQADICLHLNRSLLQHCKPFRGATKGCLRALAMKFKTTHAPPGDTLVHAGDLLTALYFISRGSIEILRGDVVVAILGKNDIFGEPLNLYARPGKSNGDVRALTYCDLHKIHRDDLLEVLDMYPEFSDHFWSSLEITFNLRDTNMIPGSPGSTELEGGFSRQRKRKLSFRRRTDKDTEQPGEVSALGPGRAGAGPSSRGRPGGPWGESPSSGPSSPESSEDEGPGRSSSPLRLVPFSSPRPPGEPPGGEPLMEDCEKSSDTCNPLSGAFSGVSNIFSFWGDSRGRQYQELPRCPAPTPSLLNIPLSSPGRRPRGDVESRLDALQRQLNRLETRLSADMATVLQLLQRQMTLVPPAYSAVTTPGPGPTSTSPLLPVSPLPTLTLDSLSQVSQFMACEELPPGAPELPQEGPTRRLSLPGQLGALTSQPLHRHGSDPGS
Chain of CYP3A4 (P08684 whole entry): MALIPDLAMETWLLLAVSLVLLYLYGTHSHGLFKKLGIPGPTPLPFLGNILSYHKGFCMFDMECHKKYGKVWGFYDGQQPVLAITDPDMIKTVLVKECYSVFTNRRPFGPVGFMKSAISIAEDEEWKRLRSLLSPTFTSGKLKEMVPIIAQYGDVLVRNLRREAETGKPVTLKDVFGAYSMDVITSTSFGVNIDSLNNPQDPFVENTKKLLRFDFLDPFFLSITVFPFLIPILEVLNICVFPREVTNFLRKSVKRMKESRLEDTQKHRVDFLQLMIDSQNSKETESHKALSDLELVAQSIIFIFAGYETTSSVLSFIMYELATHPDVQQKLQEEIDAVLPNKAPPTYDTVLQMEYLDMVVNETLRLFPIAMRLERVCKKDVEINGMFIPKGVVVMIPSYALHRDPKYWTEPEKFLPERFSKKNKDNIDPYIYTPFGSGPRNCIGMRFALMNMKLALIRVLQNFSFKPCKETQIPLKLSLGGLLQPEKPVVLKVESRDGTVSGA
Chain of CYP2C9 (P11712 whole entry): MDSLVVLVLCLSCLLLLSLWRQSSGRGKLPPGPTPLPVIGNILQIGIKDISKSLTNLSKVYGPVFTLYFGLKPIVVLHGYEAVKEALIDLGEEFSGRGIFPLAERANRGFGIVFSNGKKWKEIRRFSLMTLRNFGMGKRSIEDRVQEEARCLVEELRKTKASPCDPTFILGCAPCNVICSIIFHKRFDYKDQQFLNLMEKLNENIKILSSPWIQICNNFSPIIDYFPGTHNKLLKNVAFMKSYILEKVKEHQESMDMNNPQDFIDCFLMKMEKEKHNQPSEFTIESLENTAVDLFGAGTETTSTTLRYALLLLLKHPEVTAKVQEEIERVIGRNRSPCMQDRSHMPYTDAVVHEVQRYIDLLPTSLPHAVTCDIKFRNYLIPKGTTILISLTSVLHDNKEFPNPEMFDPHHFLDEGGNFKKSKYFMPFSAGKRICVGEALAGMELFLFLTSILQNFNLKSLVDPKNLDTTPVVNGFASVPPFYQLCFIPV
Chain of CYP2C19 (P33261 whole entry): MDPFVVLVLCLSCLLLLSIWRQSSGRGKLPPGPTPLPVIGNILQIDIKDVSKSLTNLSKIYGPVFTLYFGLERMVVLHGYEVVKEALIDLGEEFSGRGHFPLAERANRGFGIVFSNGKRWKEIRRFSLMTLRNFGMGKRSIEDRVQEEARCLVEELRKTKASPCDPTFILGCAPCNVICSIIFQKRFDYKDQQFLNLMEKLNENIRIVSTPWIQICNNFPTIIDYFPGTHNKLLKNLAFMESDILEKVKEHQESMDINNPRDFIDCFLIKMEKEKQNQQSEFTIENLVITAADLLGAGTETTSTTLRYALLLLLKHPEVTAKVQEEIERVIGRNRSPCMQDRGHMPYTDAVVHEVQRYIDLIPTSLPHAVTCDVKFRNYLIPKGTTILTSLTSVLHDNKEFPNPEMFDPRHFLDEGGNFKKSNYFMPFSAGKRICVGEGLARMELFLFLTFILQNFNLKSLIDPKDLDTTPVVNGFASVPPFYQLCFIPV
Chain of CYP2D6 (P10635 whole entry): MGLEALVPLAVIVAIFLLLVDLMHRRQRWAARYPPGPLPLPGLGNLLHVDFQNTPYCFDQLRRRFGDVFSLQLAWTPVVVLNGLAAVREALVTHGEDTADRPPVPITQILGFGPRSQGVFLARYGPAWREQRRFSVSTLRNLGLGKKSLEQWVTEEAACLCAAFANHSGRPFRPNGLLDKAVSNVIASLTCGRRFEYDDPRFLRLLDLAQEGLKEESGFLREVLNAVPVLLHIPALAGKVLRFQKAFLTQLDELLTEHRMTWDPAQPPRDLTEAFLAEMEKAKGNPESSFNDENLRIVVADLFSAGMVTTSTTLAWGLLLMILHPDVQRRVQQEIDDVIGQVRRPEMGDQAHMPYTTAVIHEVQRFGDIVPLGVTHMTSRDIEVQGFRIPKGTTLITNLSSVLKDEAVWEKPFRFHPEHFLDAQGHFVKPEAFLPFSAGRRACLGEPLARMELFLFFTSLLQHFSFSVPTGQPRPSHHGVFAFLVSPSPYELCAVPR

inhibition at 10 µM (CYP2C9): 78.2%
AUC/dose [1]: 154.3 ng·h/mL
AUC [2]: 2957 ng·h/mL
inhibition at 10 µM (CYP3A4): 73%
inhibition at 10 µM (CYP1A2): > 100%
F [7]: 66.9%
remaining at 2 h [10]: 98.3%
inhibition [11]: Active
inhibition [13]: Active
Vd [17]: 31.2 L/kg
AUC(0-t) [19]: 771 ng·h/mL
inhibition [20]: Active
inhibition at 10 µM (CYP2D6): 55.3%
Tmax [21]: 4 h
AUC(0-t) [23]: 1030 ng·h/mL
C0 [24]: 342 ng/mL
remaining at 0.5 h [27]: 62.8%
half-life [28]: 9.6 h
remaining at 0.5 h [29]: 94.5%
Cmax [31]: 159 ng/mL
inhibition [32]: Active
inhibition at 10 µM (CYP2C19): 56.3%
MRT inf [33]: 5.4 h
inhibition [36]: Active
CL/F [37]: 47.3 mL/min
Vd [38]: 3.6 L/kg
remaining at 2 h [43]: 100%
AUC/dose [44]: 103.2 ng·h/mL
AUC [45]: 1059 ng·h/mL
MRT inf [46]: 15 h
inhibition (Homo sapiens): inactive
clearance [47]: 84.5 mL/min
half-life [49]: 4.4 h
Structure (SMILES): COc1c(C(=O)Nc2ccc3c(C)nn(CCC4CCN(C)CC4)c3c2)ccc2c1C=CC(C)(C)O2
Activity [3]: Active
inhibition at 10 µM (hERG (KCNH2) [4]): 57%
IC50 [5]: 6.86 µM
Activity [6]: Active
Activity [8]: Non-Toxic
Activity [9]: Non-Toxic
inhibition at 30 µM (hERG (KCNH2) [12]): 87.1%
IC50 [14]: 4.42 µM
Activity [15]: Non-Toxic
Activity (BT-474 [16]): Active
Activity [18]: Active
Activity (BT-474 [22]): Active
Activity [25]: Active
Activity (BT-474 [26]): Active
inhibition at 3 µM (hERG (KCNH2) [30]): 30.4%
Activity [34]: Active
Activity [35]: Non-Toxic
Activity [39]: Active
inhibition at 10 µM (BT-474 [40]): < 20%
Activity [41]: Non-Toxic
Activity (BT-474 [42]): Active
inhibition at 10 µM (JIMT-1): < 20%
Activity [48]: Active
Activity (HEK293): Toxic
